Activity calls are given as the source filed them. The rule behind the calls is not given here.
Legend:
[1] = Antiproliferative activity against human MGC803 cells by MTT assay; format: functional, cell-based; conditions: MGC-803
[2] = system: A549; test: Antiproliferative activity against human A549 cells by MTT assay; format: functional, cell-based
[3] = system: HepG2; test: Antiproliferative activity against human HepG2 cells by MTT assay; format: functional, cell-based
[4] = system: A549; test: Induction of apoptosis in human A549 cells assessed as upregulation of caspase-8 expression at 10 uM after 48 hrs by Western blot analysis; format: functional, cell-based
[5] = system: A549; test: Induction of apoptosis in human A549 cells assessed as necrotic cells at 10 uM after 48 hrs by Annexin-V/Propidium iodide dual staining based flow cytometric analysis (reference value: 2.57 +/- 0.39%); format: functional
[6] = system: A549; test: Induction of apoptosis in human A549 cells assessed as viable cells at 10 uM after 6 hrs by Annexin-V-FITC/Propidium iodide staining based flow cytometric analysis (reference value: 95.48 +/- 2.03%); format: functional; conditions: A549, 6 h, read-out: Activity
[7] = system: A549; test: Induction of apoptosis in human A549 cells assessed as early apoptotic cells at 10 uM after 6 hrs by Annexin-V-FITC/Propidium iodide staining based flow cytometric analysis (reference value: 3.83 +/- 0.49%); format: functional
[8] = system: A549; test: Induction of apoptosis in human A549 cells assessed as late apoptotic cells at 10 uM after 6 hrs by Annexin-V-FITC/Propidium iodide staining based flow cytometric analysis (reference value: 0.41 +/- 0.19%); format: functional
[9] = system: A549; test: Cell cycle arrest in human A549 cells assessed as accumulation at S phase at 10 uM by propidium iodide staining based flow cytometric analysis (reference value: 23.41 +/- 2.19%); format: functional
[10] = system: A549; test: Induction of apoptosis in human A549 cells assessed as viable cells at 10 uM after 48 hrs by Annexin-V-FITC/Propidium iodide staining based flow cytometric analysis (reference value: 92.46 +/- 4.23%); format: functional; conditions: A549, 48 h, read-out: Activity
[11] = system: A549; test: Induction of apoptosis in human A549 cells assessed as early apoptotic cells at 10 uM after 48 hrs by Annexin-V/Propidium iodide dual staining based flow cytometric analysis (reference value: 3.53 +/- 0.89%); format: functional
[12] = system: A549; test: Induction of apoptosis in human A549 cells assessed as upregulation of caspase-3 expression at 10 uM after 48 hrs by Western blot analysis; format: functional, cell-based
[13] = system: A549; test: Induction of apoptosis in human A549 cells assessed as late apoptotic cells at 10 uM after 48 hrs by Annexin-V/Propidium iodide dual staining based flow cytometric analysis (reference value: 1.44 +/- 0.43%); format: functional
[14] = system: A549; test: Induction of apoptosis in human A549 cells assessed as increase in ROS production at 10 uM after 12 hrs by DCF staining based luminescence spectrometric analysis; format: functional, cell-based
[15] = system: A549; test: Induction of apoptosis in human A549 cells assessed as necrotic cells at 10 uM after 6 hrs by Annexin-V-FITC/Propidium iodide staining based flow cytometric analysis (reference value: 0.28 +/- 0.09%); format: functional
[16] = system: A549; test: Cell cycle arrest in human A549 cells assessed as accumulation at G0/G1 phase at 10 uM by propidium iodide staining based flow cytometric analysis (reference value: 63.82 +/- 2.66%); format: functional
[17] = system: A549; test: Cell cycle arrest in human A549 cells assessed as accumulation at G2/M phase at 10 uM by propidium iodide staining based flow cytometric analysis (reference value: 12.77 +/- 1.55%); format: functional
[18] = system: A549; test: Induction of apoptosis in human A549 cells assessed as upregulation of Bax expression at 10 uM after 48 hrs by Western blot analysis; format: functional, cell-based
[19] = target: RAF proto-oncogene serine/threonine-protein kinase (Homo sapiens) (UniProt P04049); conditions: A549, 10 uM
Description: Inhibition of C-Raf in human A549 cells at 10 uM after 48 hrs by Western blot analysis

[20] = system: A549; test: Induction of apoptosis in human A549 cells assessed as downregulation of Bcl-2 expression at 10 uM after 48 hrs by Western blot analysis; format: functional, cell-based

Chain of RAF proto-oncogene serine/threonine-protein kinase (Homo sapiens) (P04049 whole entry): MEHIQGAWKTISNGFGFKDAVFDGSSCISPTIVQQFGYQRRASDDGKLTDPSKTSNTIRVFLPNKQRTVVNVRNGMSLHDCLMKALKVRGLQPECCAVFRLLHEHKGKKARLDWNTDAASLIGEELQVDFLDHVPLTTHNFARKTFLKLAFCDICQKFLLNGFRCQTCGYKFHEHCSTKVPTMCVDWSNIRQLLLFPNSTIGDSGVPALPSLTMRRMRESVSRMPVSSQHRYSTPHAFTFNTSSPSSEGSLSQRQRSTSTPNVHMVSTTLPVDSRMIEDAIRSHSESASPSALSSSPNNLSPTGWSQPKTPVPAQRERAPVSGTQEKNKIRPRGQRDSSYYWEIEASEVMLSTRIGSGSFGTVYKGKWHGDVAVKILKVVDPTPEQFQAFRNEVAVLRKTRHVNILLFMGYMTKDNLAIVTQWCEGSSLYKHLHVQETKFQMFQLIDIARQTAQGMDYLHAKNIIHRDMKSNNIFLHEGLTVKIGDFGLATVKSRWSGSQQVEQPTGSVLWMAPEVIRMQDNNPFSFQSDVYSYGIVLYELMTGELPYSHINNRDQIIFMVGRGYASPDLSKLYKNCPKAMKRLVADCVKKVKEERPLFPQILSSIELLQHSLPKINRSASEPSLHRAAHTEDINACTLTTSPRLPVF

| IC50 [2] | IC50 [3] | Compound | IC50 [1] | also measured |
| --- | --- | --- | --- | --- |
| 35.3 µM | 34.2 µM | COc1cc2ncnc(NCc3cccc(NC(=O)Nc4cccc(C(F)(F)F)c4)c3)c2cc1OC | > 50 µM |  |
| 30.4 µM | > 50 µM | COc1cc2ncnc(NCc3cccc(NC(=O)Nc4ccc(Cl)cc4)c3)c2cc1OC | 44.2 µM |  |
| 21.4 µM | > 50 µM | COc1cc2ncnc(NCc3cccc(NC(=O)Nc4ccccc4C)c3)c2cc1OC | > 50 µM |  |
| 29.4 µM | > 50 µM | COC(=O)c1ccccc1NC(=O)Nc1cccc(CNc2ncnc3ccccc23)c1 | 9.63 µM |  |
| 24.9 µM | > 50 µM | Cc1ccc(NC(=O)Nc2cccc(CNc3ncnc4ccccc34)c2)cc1 | 31.2 µM |  |
| 12.9 µM | > 50 µM | COc1cc2ncnc(NCc3cccc(NC(=O)Nc4ccc(C)cc4)c3)c2cc1OC | 34.2 µM |  |
| > 50 µM | > 50 µM | O=C(Nc1cccc(Cl)c1)Nc1cccc(CNc2ncnc3ccccc23)c1 | 19.2 µM |  |
| > 50 µM | 18.8 µM | COc1cc2ncnc(NCc3cccc(NC(=O)Nc4ccc([N+](=O)[O-])cc4)c3)c2cc1OC | 8.12 µM |  |
| 17.9 µM | 16.9 µM | CC(C)(C)c1ccc(NC(=O)Nc2cccc(CNc3ncnc4ccccc34)c2)cc1 | 7.47 µM |  |
| 29.3 µM | 31.6 µM | COC(=O)c1ccccc1NC(=O)Nc1cccc(CNc2ncnc3cc(OC)c(OC)cc23)c1 | 8.98 µM |  |
| 18.4 µM | > 50 µM | O=C(Nc1ccccc1)Nc1cccc(CNc2ncnc3ccccc23)c1 | 13.2 µM |  |
| > 50 µM | > 50 µM | O=C(Nc1ccc(Cl)cc1)Nc1cccc(CNc2ncnc3ccccc23)c1 | 26.4 µM |  |
| 15.2 µM | 27.2 µM | COc1ccccc1NC(=O)Nc1cccc(CNc2ncnc3cc(OC)c(OC)cc23)c1 | 7.71 µM |  |
|  |  | COc1cc2ncnc(Nc3ccc(F)c(Cl)c3)c2cc1OCCCN1CCOCC1 [GEFITINIB] |  | Activity [4]: Active; Activity [5]: 11%; viability at 10 µM [6]: 88%; Activity [7]: 5.81%; Activity [8]: 5.27%; Activity [9]: 3.61%; viability at 10 µM [10]: 83.1%; Activity [11]: 1%; Activity [12]: Active; Activity [13]: 4.92%; Activity [14]: Active; Activity [15]: 0.94%; Activity [16]: 92.35%; Activity [17]: 4.04% |
| 16.9 µM | 36.6 µM | COc1cc2ncnc(NCc3cccc(NC(=O)Nc4ccc(F)cc4)c3)c2cc1OC | 42.1 µM |  |
| 27.1 µM | 21.5 µM | COc1cc2ncnc(NCc3cccc(NC(=O)Nc4cccc(C)c4)c3)c2cc1OC | 44.6 µM |  |
| 29.3 µM | > 50 µM | COc1ccc(NC(=O)Nc2cccc(CNc3ncnc4ccccc34)c2)cc1 | 27.3 µM |  |
| 44.2 µM | 40 µM | O=C(Nc1cccc(CNc2ncnc3ccccc23)c1)Nc1cccc(C(F)(F)F)c1 | > 50 µM |  |
| 21 µM | 41.5 µM | O=C(Nc1ccc(F)cc1)Nc1cccc(CNc2ncnc3ccccc23)c1 | 44.3 µM |  |
| 30.8 µM | 17.4 µM | COc1ccccc1NC(=O)Nc1cccc(CNc2ncnc3ccccc23)c1 | 39.3 µM |  |
| > 50 µM | 24.6 µM | O=C(Nc1ccc([N+](=O)[O-])cc1)Nc1cccc(CNc2ncnc3ccccc23)c1 | 9.42 µM |  |
| 30.2 µM | > 50 µM | Cc1cccc(NC(=O)Nc2cccc(CNc3ncnc4ccccc34)c2)c1 | 30.2 µM |  |
| 26.1 µM | 17.5 µM | O=C(Nc1cccc(CNc2ncnc3ccccc23)c1)Nc1ccccc1F | 33.4 µM |  |
| 15.2 µM | 25.5 µM | COc1cc2ncnc(NCc3cccc(NC(=O)Nc4ccccc4Cl)c3)c2cc1OC | 30.2 µM |  |
| 23.8 µM | 24.9 µM | COc1cc2ncnc(NCc3cccc(NC(=O)Nc4ccccc4F)c3)c2cc1OC | 10.3 µM |  |
| 17.1 µM | 19.7 µM | COc1cc2ncnc(NCc3cccc(NC(=O)Nc4ccccc4)c3)c2cc1OC | 10 µM |  |
| 18 µM | > 50 µM | O=C(Nc1cccc(CNc2ncnc3ccccc23)c1)Nc1ccccc1Cl | > 50 µM |  |
| 40.2 µM | > 50 µM | Cc1ccccc1NC(=O)Nc1cccc(CNc2ncnc3ccccc23)c1 | > 50 µM |  |
| 22.7 µM | 35.9 µM | COc1cc2ncnc(NCc3cccc(NC(=O)Nc4cccc(Cl)c4)c3)c2cc1OC | > 50 µM |  |
| 24.5 µM | > 50 µM | COc1ccc(NC(=O)Nc2cccc(CNc3ncnc4cc(OC)c(OC)cc34)c2)cc1 | 12.3 µM |  |

| Compound | IC50 [2] | IC50 [3] | IC50 [1] | also measured |
| --- | --- | --- | --- | --- |
| CNC(=O)c1cc(Oc2ccc(NC(=O)Nc3ccc(Cl)c(C(F)(F)F)c3)cc2)ccn1 [SORAFENIB] | 13.6 µM | 9.14 µM | 7.99 µM | Activity [4]: Active; Activity [5]: 19.9%; viability at 10 µM [6]: 83.7%; Activity [18]: Active; inhibition [19]: Active; Activity [7]: 9.33%; Activity [8]: 6.23%; Activity [9]: 5.79%; viability at 10 µM [10]: 72.8%; Activity [11]: 0.9%; Activity [12]: Active; Activity [13]: 6.38%; Activity [14]: Active; Activity [20]: Active; Activity [15]: 0.7%; Activity [16]: 90.27%; Activity [17]: 3.93% |
